Measured values published in patent US11059852B2, “Ergostenol glycoside derivative” (ST PHARM CO., LTD., priority 2017, dated 2021).

What was measured:
Type in all cases: cell-based
[1] = system: CCL17 expression in HaCaT cells; experiment: CCL17 gene expression (RT-PCR) in HaCaT cells induced by TNF-α and/or IFN-γ; details: HaCaT cells, 2.5, 5, 10 and 20 μg/mL for one hour, then TNF-α, IFN-γ, or both, 18 hours; RNA level, FIG. 2
Protocol: (§1) 1×10^6 HaCaT cells were moved into a 6-well microplate, cultured in DMEM containing 10% (v/v) FBS for 12 hours, washed with PBS, and then treated in 2 mL of serum free media with ergostenol at each concentration of 2.5, 5, 10 and 20 μg/mL for one hour. After that, the cells were treated with inflammation-inducing molecules, i.e., TNF-α, IFN-γ, or TNF-α and IFN-γ, and then cultured for 18 hours. To identify a change in CCL17 and CCL22 expressions at an RNA level, RNAs were isolated with Trizol reagent kit (Invitrogen, Gaithersburg, Md.) according to a manufacturer's manual. A reverse transcription was performed with the isolated RNAs as a template to obtain cDNAs. A reverse transcription buffer solution (5 mM MgCl2, 1 mM dNTP, 2.5 U/μL reverse transcriptase, and 2.5 μM oligo (dT) 15 as a primer (omniscript RTkit, Qiagen)), 0.5 U of RNase inhibiter, 2.5 μM of oligo (dT) and 2.5 U of reverse transcriptase were added into 2 μg of […], and subjected to reaction at 37° C., such that the cDNAs were obtained. To quantify the obtained cDNAs, PCR was performed with the primers of a following table 1, after which the amplified DNAs were identified with 1% agarose gel.

[2] = system: CCL22 expression in HaCaT cells; experiment: CCL22 gene expression (RT-PCR) in HaCaT cells induced by TNF-α and/or IFN-γ; details: HaCaT cells, 2.5, 5, 10 and 20 μg/mL for one hour, then TNF-α, IFN-γ, or both, 18 hours; RNA level, FIG. 2
Protocol: as §1

[3] = system: CCL17 expression in HaCaT cells; experiment: CCL17 protein in media (ELISA) of HaCaT cells induced by TNF-α and/or IFN-γ; details: HaCaT cells, 2.5, 5, 10 and 20 μg/mL for one hour, then TNF-α, IFN-γ, or both, 18 hours, FIG. 3
Protocol: (§2) Also, to figure out an effect of ergostenol at a protein level, HaCaT cells were treated with ergostenol at a concentration of 2.5, 5, 10 and 20 μg/mL for one hour, then treated with molecules related to inflammation induction, i.e., TNF-α, IFN-γ, or TNF-α and IFN-γ, and then cultured for 18 hours. With regard to CCL17 and CCL22, the amount of proteins present in media was identified with an ELISA kit (R&D Systems, Minneapolis, Minn., USA). Captured antibodies (anti-CCL17 antibody and anti-CCL22 antibody) at 2 μg/mL were inserted into a 96-well plate in an amount of 50 μL, respectively, subjected to coating for two hours, and then subjected to blocking with PBS containing 1% BSA for one hour. Then, a collected sample was inserted into each well in an amount of 100 μL, respectively, and subjected to reaction for two hours. The cells were washed three times with PBS-T, after which 50 μL of detector antibodies (anti-CCL17 antibody and anti-CCL22 antibody) were inserted into each well at 100 ng/well, and subjected to reaction for two hours. […] The cells were fully washed with PBS-T, after which a substrate solution (TMB) was added thereto, such that absorbance thereof was measured at 450 nm.

[4] = system: CCL22 expression in HaCaT cells; experiment: CCL22 protein in media (ELISA) of HaCaT cells induced by TNF-α and/or IFN-γ; details: HaCaT cells, 2.5, 5, 10 and 20 μg/mL for one hour, then TNF-α, IFN-γ, or both, 18 hours, FIG. 3
Protocol: as §2

Ergostenol
decrease: level of CCL17 gene expression [1] | level of CCL22 gene expression [2] | level of CCL17 protein expression [3] | level of CCL22 protein expression [4]
